One molecule from ChEMBL document CHEMBL5247625, “Discovery and characterization of novel potent BCR-ABL degraders by conjugating allosteric inhibitor” (Eur J Med Chem, 2022) can be followed below.

Active and inactive are the calls of the source. No cut-off for these calls is given here.

For assay [1], the target named is T1, Protein cereblon/Tyrosine-protein kinase ABL1/Breakpoint cluster region protein (Homo sapiens, UniProt P00519+P11274+Q96SW2). Put plainly: Protac activity at CRBN/BCR-ABL in human K562 cells assessed as increase in BCR-ABL degradation at 100 nM by Western blotting analysis. The class given is cell-based. In general terms: Immunoblotting shows a protein as a band on a membrane.
Target sequence in this assay (P00519 whole entry, looked up): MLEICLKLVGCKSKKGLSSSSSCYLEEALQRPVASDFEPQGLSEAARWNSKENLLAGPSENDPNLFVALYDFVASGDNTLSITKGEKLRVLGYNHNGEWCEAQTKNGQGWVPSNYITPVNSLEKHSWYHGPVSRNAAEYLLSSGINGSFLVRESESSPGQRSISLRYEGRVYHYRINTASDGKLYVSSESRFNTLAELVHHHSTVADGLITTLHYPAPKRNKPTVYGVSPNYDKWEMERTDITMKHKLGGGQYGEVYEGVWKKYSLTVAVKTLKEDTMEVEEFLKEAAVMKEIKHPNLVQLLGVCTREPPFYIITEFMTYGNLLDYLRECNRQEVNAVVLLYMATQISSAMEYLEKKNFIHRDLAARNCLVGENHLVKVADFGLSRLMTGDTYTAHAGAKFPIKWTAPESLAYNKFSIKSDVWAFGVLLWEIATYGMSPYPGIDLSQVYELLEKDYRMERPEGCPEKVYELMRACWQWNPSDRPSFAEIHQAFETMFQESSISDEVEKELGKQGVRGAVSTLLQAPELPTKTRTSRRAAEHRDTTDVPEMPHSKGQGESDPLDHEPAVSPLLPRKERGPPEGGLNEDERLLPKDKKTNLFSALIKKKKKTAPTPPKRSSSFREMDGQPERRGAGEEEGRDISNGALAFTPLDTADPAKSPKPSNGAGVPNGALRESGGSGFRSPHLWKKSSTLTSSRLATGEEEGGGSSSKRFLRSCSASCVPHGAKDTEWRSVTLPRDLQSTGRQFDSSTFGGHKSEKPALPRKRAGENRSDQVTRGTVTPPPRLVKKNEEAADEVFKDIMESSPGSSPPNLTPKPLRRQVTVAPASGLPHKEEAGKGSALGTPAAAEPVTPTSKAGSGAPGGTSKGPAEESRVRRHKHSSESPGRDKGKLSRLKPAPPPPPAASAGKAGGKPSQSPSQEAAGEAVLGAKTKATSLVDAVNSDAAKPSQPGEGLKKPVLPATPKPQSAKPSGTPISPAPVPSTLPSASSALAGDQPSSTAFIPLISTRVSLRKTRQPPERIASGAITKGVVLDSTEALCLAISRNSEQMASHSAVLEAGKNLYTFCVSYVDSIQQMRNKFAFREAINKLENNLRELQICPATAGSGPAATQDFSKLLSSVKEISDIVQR
Target sequence in this assay (P11274 whole entry, looked up): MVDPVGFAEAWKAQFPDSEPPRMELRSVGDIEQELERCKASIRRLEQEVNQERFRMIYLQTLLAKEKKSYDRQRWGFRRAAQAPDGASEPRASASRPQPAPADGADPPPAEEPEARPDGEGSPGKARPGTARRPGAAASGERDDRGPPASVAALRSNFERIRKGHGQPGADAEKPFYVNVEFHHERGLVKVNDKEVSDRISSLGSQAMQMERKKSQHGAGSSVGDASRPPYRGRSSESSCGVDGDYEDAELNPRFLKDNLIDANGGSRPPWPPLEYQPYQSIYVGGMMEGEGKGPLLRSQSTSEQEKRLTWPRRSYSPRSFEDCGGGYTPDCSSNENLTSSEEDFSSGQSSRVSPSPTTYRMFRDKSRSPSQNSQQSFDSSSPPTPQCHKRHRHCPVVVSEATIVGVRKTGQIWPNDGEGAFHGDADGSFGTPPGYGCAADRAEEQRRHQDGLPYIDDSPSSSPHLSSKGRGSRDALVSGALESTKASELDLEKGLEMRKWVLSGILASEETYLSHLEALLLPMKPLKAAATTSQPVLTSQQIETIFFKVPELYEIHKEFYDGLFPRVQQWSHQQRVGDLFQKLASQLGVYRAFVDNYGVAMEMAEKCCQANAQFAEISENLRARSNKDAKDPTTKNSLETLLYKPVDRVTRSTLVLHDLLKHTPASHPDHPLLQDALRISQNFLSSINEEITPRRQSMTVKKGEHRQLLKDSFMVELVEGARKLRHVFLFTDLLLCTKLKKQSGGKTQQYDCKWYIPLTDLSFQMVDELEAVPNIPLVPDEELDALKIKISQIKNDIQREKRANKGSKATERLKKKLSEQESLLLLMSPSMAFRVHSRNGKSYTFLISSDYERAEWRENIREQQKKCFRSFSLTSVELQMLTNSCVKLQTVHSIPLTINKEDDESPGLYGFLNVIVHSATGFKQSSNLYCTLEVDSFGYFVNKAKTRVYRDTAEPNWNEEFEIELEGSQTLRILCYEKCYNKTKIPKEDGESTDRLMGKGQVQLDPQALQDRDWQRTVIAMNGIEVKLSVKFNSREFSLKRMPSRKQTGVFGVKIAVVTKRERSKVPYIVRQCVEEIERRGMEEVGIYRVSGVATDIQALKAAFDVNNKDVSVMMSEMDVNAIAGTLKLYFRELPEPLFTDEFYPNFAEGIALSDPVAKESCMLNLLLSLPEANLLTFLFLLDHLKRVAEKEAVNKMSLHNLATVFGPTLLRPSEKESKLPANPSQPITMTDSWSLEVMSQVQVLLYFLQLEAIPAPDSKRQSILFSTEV
Target sequence in this assay (Q96SW2 whole entry, looked up): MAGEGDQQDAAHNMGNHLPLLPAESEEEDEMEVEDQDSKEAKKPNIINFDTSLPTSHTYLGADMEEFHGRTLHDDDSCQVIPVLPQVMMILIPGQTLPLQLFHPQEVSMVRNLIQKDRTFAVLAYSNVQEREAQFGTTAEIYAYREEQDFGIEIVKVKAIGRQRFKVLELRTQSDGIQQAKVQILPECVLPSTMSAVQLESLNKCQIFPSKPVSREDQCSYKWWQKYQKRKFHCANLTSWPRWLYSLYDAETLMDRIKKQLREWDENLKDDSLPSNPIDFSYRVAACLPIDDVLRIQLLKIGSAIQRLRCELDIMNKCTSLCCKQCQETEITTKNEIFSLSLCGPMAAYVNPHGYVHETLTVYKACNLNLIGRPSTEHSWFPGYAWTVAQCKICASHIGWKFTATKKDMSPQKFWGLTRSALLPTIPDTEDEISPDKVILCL

The target of assay [2] is Tyrosine-protein kinase ABL1 (Homo sapiens, UniProt P00519). The assay can be described thus: Binding affinity to recombinant ABL (unknown origin).
Assay [3] concerns the target T1, Protein cereblon/Tyrosine-protein kinase ABL1/Breakpoint cluster region protein. Put plainly: Protac activity at CRBN/BCR-ABL in human K562 cells assessed as increase in BCR-ABL degradation incubated for 16 hrs by Western blotting analysis. It is filed as cell-based.
The target in assay [4] is Bcr/Abl fusion protein (Homo sapiens) (UniProt P00519+P11274). The assay can be described thus: Inhibition of BCR-ABL phosphorylation at Tyr245 residue in human K562 cells at 0.3 to 100 nM incubated for 16 hrs by Western blotting analysis. It is filed as cell-based. Conditions: dose 0.3-100 nM.
Assay [5] deals with T2, Signal transducer and activator of transcription 5A (Homo sapiens) (UniProt P42229).
T2 sequence (whole entry): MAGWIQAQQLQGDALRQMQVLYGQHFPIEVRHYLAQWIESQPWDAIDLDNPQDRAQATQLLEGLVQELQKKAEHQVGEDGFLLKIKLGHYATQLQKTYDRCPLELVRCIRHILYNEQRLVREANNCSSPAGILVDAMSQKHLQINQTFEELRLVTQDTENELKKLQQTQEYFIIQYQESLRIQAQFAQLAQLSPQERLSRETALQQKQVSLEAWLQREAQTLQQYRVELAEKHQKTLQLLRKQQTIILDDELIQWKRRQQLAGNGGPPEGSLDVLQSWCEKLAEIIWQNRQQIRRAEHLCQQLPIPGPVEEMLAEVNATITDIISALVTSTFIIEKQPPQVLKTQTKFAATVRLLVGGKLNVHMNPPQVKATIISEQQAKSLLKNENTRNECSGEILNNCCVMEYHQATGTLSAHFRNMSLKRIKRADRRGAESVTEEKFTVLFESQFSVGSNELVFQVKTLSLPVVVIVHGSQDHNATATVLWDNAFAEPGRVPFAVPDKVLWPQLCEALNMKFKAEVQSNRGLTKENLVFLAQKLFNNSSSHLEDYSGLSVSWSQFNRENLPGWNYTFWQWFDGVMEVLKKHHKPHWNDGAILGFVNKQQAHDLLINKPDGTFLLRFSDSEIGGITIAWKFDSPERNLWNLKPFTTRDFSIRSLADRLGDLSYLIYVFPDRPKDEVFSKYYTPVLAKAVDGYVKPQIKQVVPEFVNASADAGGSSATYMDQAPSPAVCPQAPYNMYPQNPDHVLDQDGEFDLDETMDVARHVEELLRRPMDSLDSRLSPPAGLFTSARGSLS
The assay can be described thus: Inhibition of STAT5 phosphorylation at Tyr694 residue in human K562 cells at 0.3 to 100 nM incubated for 16 hrs by Western blotting analysis. The class given is cell-based. Conditions: dose 0.3-100 nM.

Assay [6] has as its target Crk-like protein (Homo sapiens) (UniProt P46109). The assay can be described thus: Inhibition of CRKL phosphorylation at Tyr207 residue in human K562 cells at 0.3 to 100 nM incubated for 16 hrs by Western blotting analysis. The class given is cell-based. The conditions noted are these: dose 0.3-100 nM.
In assay [7] the target is T1, Protein cereblon/Tyrosine-protein kinase ABL1/Breakpoint cluster region protein. The assay can be described thus: Protac activity at CRBN/BCR-ABL in human K562 cells assessed as induction of BCR-ABL degradation at 100 nM by Western blotting analysis. The class given is cell-based. The conditions noted are these: time 4.0 hrs, TDE = time-dependent effect.
Target sequence in this assay (P00519 whole entry, looked up): as the sequence (P00519 whole entry, looked up) above
Target sequence in this assay (P11274 whole entry, looked up): as the sequence (P11274 whole entry, looked up) above
Target sequence in this assay (Q96SW2 whole entry, looked up): as the sequence (Q96SW2 whole entry, looked up) above
Assay [8] has the same target. Put plainly: Protac activity at CRBN/BCR-ABL in human K562 cells assessed as c-ABL turnover rate in presence of cycloheximide by Western blotting analysis. The class given is cell-based.
Target sequence in this assay (P00519 whole entry, looked up): as the sequence (P00519 whole entry, looked up) above
Target sequence in this assay (P11274 whole entry, looked up): as the sequence (P11274 whole entry, looked up) above
Target sequence in this assay (Q96SW2 whole entry, looked up): as the sequence (Q96SW2 whole entry, looked up) above
The target is the same in assay [9]. The assay can be described thus: Protac activity at CRBN/BCR-ABL in human K562 cells assessed as induction of BCR-ABL degradation at 100 nM pretreated with asciminib for 2 hrs followed by compound addition measured after 8 hrs by Western blotting analysis. It is filed as cell-based. The conditions noted are these: time 10.0 hrs.
Target sequence in this assay (P00519 whole entry, looked up): as the sequence (P00519 whole entry, looked up) above
Target sequence in this assay (P11274 whole entry, looked up): as the sequence (P11274 whole entry, looked up) above
Target sequence in this assay (Q96SW2 whole entry, looked up): as the sequence (Q96SW2 whole entry, looked up) above
Assay [10] has the same target. The assay can be described thus: Protac activity at CRBN/BCR-ABL in human K562 cells assessed as induction of BCR-ABL degradation at 100 nM pretreated with MLN4924 for 2 hrs followed by compound addition measured after 8 hrs by Western blotting analysis. The class given is cell-based. The conditions noted are these: time 10.0 hrs.
Target sequence in this assay (P00519 whole entry, looked up): as the sequence (P00519 whole entry, looked up) above
Target sequence in this assay (P11274 whole entry, looked up): as the sequence (P11274 whole entry, looked up) above
Target sequence in this assay (Q96SW2 whole entry, looked up): as the sequence (Q96SW2 whole entry, looked up) above
Assay [11] has the same target. The assay can be described thus: Protac activity at CRBN/BCR-ABL in human K562 cells assessed as induction of c-ABL degradation at 100 nM pretreated with lenalidomide for 2 hrs followed by compound addition measured after 8 hrs by Western blotting analysis. The class given is cell-based. Conditions: time 10.0 hrs.
Target sequence in this assay (P00519 whole entry, looked up): as the sequence (P00519 whole entry, looked up) above
Target sequence in this assay (P11274 whole entry, looked up): as the sequence (P11274 whole entry, looked up) above
Target sequence in this assay (Q96SW2 whole entry, looked up): as the sequence (Q96SW2 whole entry, looked up) above
The target is the same in assay [12]. Put plainly: Protac activity at CRBN/BCR-ABL in human K562 cells assessed as induction of c-ABL degradation at 100 nM pretreated with asciminib for 2 hrs followed by compound addition measured after 8 hrs by Western blotting analysis. The class given is cell-based. The conditions noted are these: time 10.0 hrs.
The target of assay [13] is T2, Signal transducer and activator of transcription 5A (Homo sapiens). The assay can be described thus: Inhibition of STAT5 phosphorylation at Tyr694 residue in human K562 cells at 100 nM by Western blotting analysis. The class given is cell-based. Conditions: time <= 18.0 hrs, TDE = time-dependent effect.
In assay [14] the target is T1, Protein cereblon/Tyrosine-protein kinase ABL1/Breakpoint cluster region protein. Put plainly: Protac activity at CRBN/BCR-ABL in human K562 cells assessed as increase in BCR-ABL degradation at 100 nM incubated for 6 hrs by Western blotting analysis. It is filed as cell-based.
Assay [15] shares this target. The assay can be described thus: Protac activity at CRBN/BCR-ABL in human K562 cells assessed as increase in BCR-ABL degradation at 100 nM incubated for 6 hrs followed by compound washout measured after 4 hrs by Western blotting analysis. It is filed as cell-based.
Assay [16] has as its target T2, Signal transducer and activator of transcription 5A (Homo sapiens). The assay can be described thus: Inhibition of STAT5 phosphorylation at Tyr694 residue in human K562 cells at 100 nM incubated for 6 hrs followed by compound washout measured upto 96 hrs by Western blotting analysis. The class given is cell-based.
The subject of assay [17] is K562. Put plainly: Down regulation of IKZF3 expression in human K562 cells at 100 nM measured after 16 hrs by LC-MS analysis. The class given is functional, cell-based.
In assay [18] the test system is Protein cereblon/Tyrosine-protein kinase ABL1/Breakpoint cluster region protein (Mus musculus), P00520+Q6PAJ1+Q8C7D2 [T315I]. Put plainly: Protac activity at CRBN/BCR-ABL T315I mutant in mouse 32D cells assessed as increase in BCR-ABL degradation at 1 to 1000 nM by Western blotting analysis. It is filed as cell-based. Conditions: dose 1-1000 nM.
For assay [19], the system named is Protein cereblon/Tyrosine-protein kinase ABL1/Breakpoint cluster region protein (Mus musculus), P00519+P11274+Q8C7D2 [K294E]. Put plainly: Protac activity at CRBN/asciminib resistance BCR-ABL K294E mutant in mouse 32D cells assessed as increase in BCR-ABL degradation at 1 to 1000 nM by Western blotting analysis. Conditions: dose 1-1000 nM. The class given is cell-based.

For assay [20], the system named is Protein cereblon/Tyrosine-protein kinase ABL1/Breakpoint cluster region protein (Mus musculus), P00519+P11274+Q8C7D2 [T315M]. The assay can be described thus: Protac activity at CRBN/asciminib resistance BCR-ABL T315M mutant in mouse 32D cells assessed as increase in BCR-ABL degradation at 1 to 1000 nM by Western blotting analysis. The class given is cell-based. Conditions: dose 1-1000 nM.

The subject of assay [21] is Protein cereblon/Tyrosine-protein kinase ABL1/Breakpoint cluster region protein (Mus musculus), P00519+P11274+Q8C7D2 [G671R]. The assay can be described thus: Protac activity at CRBN/asciminib resistance BCR-ABL G671R mutant in mouse 32D cells assessed as increase in BCR-ABL degradation at 1 to 1000 nM by Western blotting analysis. It is filed as cell-based. Conditions: dose 1-1000 nM.

Sequence of Tyrosine-protein kinase ABL1 (P00519 whole entry): as the sequence (P00519 whole entry, looked up) above
Sequence of Crk-like protein (Homo sapiens) (P46109 whole entry): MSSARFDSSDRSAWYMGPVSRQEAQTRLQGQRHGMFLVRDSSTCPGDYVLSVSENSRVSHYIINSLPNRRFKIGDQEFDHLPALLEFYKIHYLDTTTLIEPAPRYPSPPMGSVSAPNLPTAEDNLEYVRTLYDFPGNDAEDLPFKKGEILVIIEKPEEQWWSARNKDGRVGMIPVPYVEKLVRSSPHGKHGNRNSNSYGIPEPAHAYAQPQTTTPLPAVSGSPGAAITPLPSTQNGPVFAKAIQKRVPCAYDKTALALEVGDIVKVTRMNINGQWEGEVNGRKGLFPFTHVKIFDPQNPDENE

The term Kd denotes the free concentration of one partner at which half of the binding sites on the other are occupied at equilibrium, for simple one-to-one binding. In general, DC50 refers to the midpoint of the concentration-degradation curve. Consider `O=C1CCC(N2Cc3c(SCCCCCCN4CCN(C5CCN(c6ncc(C(=O)Nc7ccc(OC(F)(F)Cl)cc7)cc6-c6ccn[nH]6)CC5)CC4)cccc3C2=O)C(=O)N1` (stereo unspecified), for which the results for the Activity in assay [1] and in [7] were 91.2% and “Tde”, respectively. Also, the dissociation constant (Kd) in assay [2] is 4740 nM. For the same molecule, in assay [3], the DC50 was 2.7 nM. Also, the inhibition entry in assay [4], in assay [5] and in assay [6] was “Active” throughout. Further, the outcome in assay [8], in assay [14], in assay [17], in assay [18], in assay [19] and in [20] was Active. Also, in [21], the outcome was Active. In addition, the outcome in assay [9], in [10], in assay [11], in assay [12] and in assay [15] was inactive. Besides, in assay [13], the inhibition entry was “Tde”. Further, the inhibition result in assay [16] is “inactive”.
